Assays:
Type in all cases: in vivo
[1] = system: Echinochloa crus-galli (L.) P. Beauv. var. formosensis Ohwi; assay: Test for Herbicidal Effect in Flooding Treatment (#2), ECHDG at 2-2.5 leaf stage; conditions: for ECHDG (2-2.5L) #2 herbicidal effect (growth inhibition grade): flooding treatment at 2-2.5 leaf stage, dose 0.2 kg/ha, visual observation on day 21; for ECHDG (2-2.5L) #2 herbicidal effect (growth inhibition rating 0-5): flooding treatment #2, 2-2.5 leaf stage
Experimental: (#2) Test for Herbicidal Effect in Flooding Treatment: Styrol cups each having an opening diameter of 13 cm (about 130 cm^2) were respectively filled with muddy soil (500 ml). Water (about 300 ml) was mixed with the soil such that the soil was flooded. After the soil stood still for 24 hours, Echinochloa crus-galli (L.) P. Beauv. var. formosensis Ohwi was seeded. When the Echinochloa crus-galli (L.) P. Beauv. var. formosensis Ohwi grew to reach 2-2.5 leaf stage, chemical solutions were dropped on the entire surface of treatment sections, so that each section is treated with 1 ml of the respective chemical solution (a dose of 0.2 kg/ha). Each of the chemical solutions was prepared by dissolving associated one of the compounds of the present invention in acetone, followed by dilution with water containing Tween 80 g. After the treatment, the plants were grown in a glasshouse. On day 21, a survey was conducted on the herbicidal activity by visual observation, and evaluation was made according to the following criteria. 0: Growth inhibition effect is less than 10%. 1: Growth inhibition effect is equal to or greater than 10%, and less than 30%. 2; Growth inhibition effect is equal to or greater than 30%, and less than 50%. 3: Growth inhibition effect equal to or greater than 50%, and less than 70%. 4: Growth inhibition effect is equal to or greater than 70%, and less than 90%. 5: Growth inhibition effect is equal to or greater than 90%, or complete withering is achieved. ECHDG=Echinochloa crus-galli (L.) P. Beauv. var. formosensis Ohwi, MONVA=Monochoria vaginalis, SCIJU=Scirpus juncoides, CYMIC=Cyperus microiria. The herbicidal activity of the following comparative compounds A and B (the compounds disclosed Japanese Unexamined Patent Publication No. 2003-096059) were evaluated in a manner pursuant to Test Example 1. (#2).

[2] = system: Echinochloa crus-galli (L.) P. Beauv. var. formosensis Ohwi; assay: Test for Herbicidal Effect in Flooding Treatment (#1), ECHDG; conditions: for ECHDG #1 herbicidal effect (growth inhibition grade): flooding treatment at seeding, dose 2 kg/ha, visual observation on day 21; for ECHDG #1 herbicidal effect (growth inhibition rating 0-5): flooding treatment #1
Experimental: (§1) (#1) Test for Herbicidal Effect in Flooding Treatment: Styrol cups each having an opening diameter of 8 cm (about 52 cm^2) were respectively filled with soil (45 ml) which had been passed through a sieve (2 mm). Water (about 115 ml) was mixed with the soil such that the soil was flooded. After the soil stood still for 24 hours, Monochoria vaginalis, Echinochloa crus-galli (L.) P. Beauv. var. formosensis Ohwi, Cyperus difformis (umbrella sedge), and Scirpus juncoides were seeded. Each of the compounds of the present invention was dissolved in acetone, and the obtained product was then diluted with water containing Tween 80®. Each of the resultant chemical solutions was dropped on the entire surface of an associated one of treatment sections, so that each section was treated with 1 ml of the respective chemical solution (a dose of 2 kg/ha). After the treatment, the plants were grown in a glasshouse. On day 21, a survey was conducted on the herbicidal activity by visual observation, and evaluation was made according to the following criteria. 0: Growth inhibition effect is less than 10%. 1: Growth inhibition effect is equal to or greater than 10%, and less than 30%. 2; Growth inhibition effect is equal to or greater than 30%, and less than 50%. 3: Growth inhibition effect equal to or greater than 50%, and less than 70%. 4: Growth inhibition effect is equal to or greater than 70%, and less than 90%. 5: Growth inhibition effect is equal to or greater than 90%, or complete withering is achieved. ECHDG=Echinochloa crus-galli (L.) P. Beauv. var. formosensis Ohwi, MONVA=Monochoria vaginalis, SCIJU=Scirpus juncoides, CYMIC=Cyperus microiria.

[3] = system: Scirpus juncoides; assay: Test for Herbicidal Effect in Flooding Treatment (#1), SCIJU; conditions: for SCIJU #1 herbicidal effect (growth inhibition grade): flooding treatment at seeding, dose 2 kg/ha, visual observation on day 21; for SCIJU #1 herbicidal effect (growth inhibition rating 0-5): flooding treatment #1
Experimental: as §1

Compound | ECHDG (2-2.5L) #2 herbicidal effect (growth inhibition grade) [1] | ECHDG #1 herbicidal effect (growth inhibition grade) [2] | SCIJU #1 herbicidal effect (growth inhibition grade) [3] | ECHDG (2-2.5L) #2 herbicidal effect (growth inhibition rating 0-5) [1] | ECHDG #1 herbicidal effect (growth inhibition rating 0-5) [2] | SCIJU #1 herbicidal effect (growth inhibition rating 0-5) [3]
CC(c1c(F)cccc1OC(F)F)S(=O)(=O)c1ncc(Cl)s1 (racemic) [Compound 1C-140] | 5 (Growth inhibition effect is equal to or greater than 90%, or complete withering is achieved) | 5 (Growth inhibition effect is equal to or greater than 90%, or complete withering is achieved) | 5 (Growth inhibition effect is equal to or greater than 90%, or complete withering is achieved) | – | – | –
[O-][S+](Cc1c(Cl)cccc1OC(F)F)c1ncc(Cl)s1 (stereo not shown) [Compound 1B-4] | – | – | – | 5 (Growth inhibition effect is equal to or greater than 90%, or complete withering is achieved) | 5 (Growth inhibition effect is equal to or greater than 90%, or complete withering is achieved) | 5 (Growth inhibition effect is equal to or greater than 90%, or complete withering is achieved)
[O-][S+](Cc1c(F)cccc1OC(F)(F)F)c1ncc(Cl)s1 (stereo not shown) [Compound 1B-5] | – | – | – | 5 (Growth inhibition effect is equal to or greater than 90%, or complete withering is achieved) | 5 (Growth inhibition effect is equal to or greater than 90%, or complete withering is achieved) | 5 (Growth inhibition effect is equal to or greater than 90%, or complete withering is achieved)
[O-][S+](Cc1c(Cl)cccc1OC(F)(F)F)c1ncc(Cl)s1 (stereo not shown) [Compound 1B-6] | – | – | – | 5 (Growth inhibition effect is equal to or greater than 90%, or complete withering is achieved) | 5 (Growth inhibition effect is equal to or greater than 90%, or complete withering is achieved) | 5 (Growth inhibition effect is equal to or greater than 90%, or complete withering is achieved)
[O-][S+](Cc1c(OCC(F)(F)F)cccc1C(F)(F)F)c1ncc(Cl)s1 (stereo not shown) [Compound 1B-11] | – | – | – | 5 (Growth inhibition effect is equal to or greater than 90%, or complete withering is achieved) | 5 (Growth inhibition effect is equal to or greater than 90%, or complete withering is achieved) | 5 (Growth inhibition effect is equal to or greater than 90%, or complete withering is achieved)
[O-][S+](Cc1ccccc1OC(F)F)c1ncc(Br)s1 (stereo not shown) [Compound 1B-18] | – | – | – | 5 (Growth inhibition effect is equal to or greater than 90%, or complete withering is achieved) | 5 (Growth inhibition effect is equal to or greater than 90%, or complete withering is achieved) | 5 (Growth inhibition effect is equal to or greater than 90%, or complete withering is achieved)
[O-][S+](Cc1c(F)cccc1OC(F)(F)F)c1ncc(Br)s1 (stereo not shown) [Compound 1B-21] | – | – | – | 5 (Growth inhibition effect is equal to or greater than 90%, or complete withering is achieved) | 5 (Growth inhibition effect is equal to or greater than 90%, or complete withering is achieved) | 5 (Growth inhibition effect is equal to or greater than 90%, or complete withering is achieved)
[O-][S+](Cc1c(Cl)cccc1OC(F)(F)F)c1ncc(Br)s1 (stereo not shown) [Compound 1B-22] | – | – | – | 5 (Growth inhibition effect is equal to or greater than 90%, or complete withering is achieved) | – | 5 (Growth inhibition effect is equal to or greater than 90%, or complete withering is achieved)
[O-][S+](Cc1ccccc1OC(F)(F)C(F)F)c1ncc(Br)s1 (stereo not shown) [Compound 1B-23] | – | – | – | 4 (Growth inhibition effect is equal to or greater than 70%, and less than 90%) | 5 (Growth inhibition effect is equal to or greater than 90%, or complete withering is achieved) | –
[O-][S+](Cc1c(OC(F)(F)C(F)(F)F)cccc1C(F)(F)F)c1ncc(Br)s1 (stereo not shown) [Compound 1B-25] | – | – | – | 5 (Growth inhibition effect is equal to or greater than 90%, or complete withering is achieved) | 5 (Growth inhibition effect is equal to or greater than 90%, or complete withering is achieved) | 5 (Growth inhibition effect is equal to or greater than 90%, or complete withering is achieved)
CCS(=O)(=O)c1cccc(F)c1C[S+]([O-])c1ncc(Cl)s1 (stereo not shown) [Compound 1B-28] | – | – | – | – | 5 (Growth inhibition effect is equal to or greater than 90%, or complete withering is achieved) | 4 (Growth inhibition effect is equal to or greater than 70%, and less than 90%)
O=S(=O)(Oc1cccc(F)c1C[S+]([O-])c1ncc(Cl)s1)C(F)(F)F (stereo not shown) [Compound 1B-29] | – | – | – | 5 (Growth inhibition effect is equal to or greater than 90%, or complete withering is achieved) | 5 (Growth inhibition effect is equal to or greater than 90%, or complete withering is achieved) | 5 (Growth inhibition effect is equal to or greater than 90%, or complete withering is achieved)
COc1ccc(CS(=O)(=O)c2ncc(Cl)s2)c(F)c1 [Compound 1C-1] | – | 5 (Growth inhibition effect is equal to or greater than 90%, or complete withering is achieved) | 4 (Growth inhibition effect is equal to or greater than 70%, and less than 90%) | – | – | –
O=S(=O)(Cc1ccc(F)c(Oc2ccccc2)c1)c1ncc(Cl)s1 [Compound 1C-86] | 1 (Growth inhibition effect is equal to or greater than 10%, and less than 30%) | 5 (Growth inhibition effect is equal to or greater than 90%, or complete withering is achieved) | – | – | – | –
O=S(=O)(Cc1ccccc1OC(F)(F)C(F)F)c1ncc(Br)s1 [Compound 1C-163] | – | 5 (Growth inhibition effect is equal to or greater than 90%, or complete withering is achieved) | 5 (Growth inhibition effect is equal to or greater than 90%, or complete withering is achieved) | – | – | –
O=C(CCl)Oc1cccc(F)c1CS(=O)(=O)c1ncc(Cl)s1 [Compound 1C-173] | – | – | 4 (Growth inhibition effect is equal to or greater than 70%, and less than 90%) | – | – | –
CC(C)(C)[Si](C)(C)Oc1cccc(F)c1CS(=O)(=O)c1ncc(Cl)s1 [Compound 1C-178] | – | 5 (Growth inhibition effect is equal to or greater than 90%, or complete withering is achieved) | 4 (Growth inhibition effect is equal to or greater than 70%, and less than 90%) | – | – | –
COC(=O)COc1cccc(F)c1CS(=O)(=O)c1ncc(Cl)s1 [Compound 1C-181] | – | 5 (Growth inhibition effect is equal to or greater than 90%, or complete withering is achieved) | 4 (Growth inhibition effect is equal to or greater than 70%, and less than 90%) | – | – | –
CCOC(=O)C(F)Oc1cccc(F)c1CS(=O)(=O)c1ncc(Cl)s1 (stereo not shown) [Compound 1C-182] | – | 5 (Growth inhibition effect is equal to or greater than 90%, or complete withering is achieved) | 3 (Growth inhibition effect equal to or greater than 50%, and less than 70%) | – | – | –
